These results are taken from PMC10072326, “Promising anticancer agents based on 8-hydroxyquinoline hydrazone copper(II) complexes” (Frontiers in Chemistry, 2023).

Broadly, the IC50 is the midpoint of a concentration-inhibition curve. As usually defined, the MIC is the smallest concentration in the dilution series that meets the test's criterion for growth inhibition.

The structures appear in SMILES notation.

For data set [1], the target named is bovine serum albumin (BSA) (Bos taurus, UniProt P02769). The data set is described as follows: BSA fluorescence quenching. Format: binding. Also on record: Affinity constant K ± SD: unit not given here. Particulars: fluorescence quenching; HypSpec2014; 1:1 species assumed. On the procedure:
To evaluate the interaction of the compounds, both organic and Cu(II) complexes, with bovine serum albumin (BSA) fluorescence spectra were measured. In a typical fluorescence experiment, to a solution of 1.5 μM of BSA in the same buffer, successive aliquots of a stock solution of each compound in DMSO were added directly to the cuvette (optical path 1.0 cm). The fluorescence emission was recorded between 310 and 600 nm with excitation at 295 nm. The final DMSO % was kept below 2% (v/v). The Stern-Volmer plots were built using the emission at 340 nm and blank samples (in the absence of BSA) with the same concentration of the complexes were recorded and subsequently subtracted from the corresponding emission spectra containing the fluorophore. Moreover, the fluorescence emission intensity was corrected for reabsorption and inner filter effects using UV-Vis absorption data recorded for each sample, since all complexes absorb in the measured wavelength range (19, 20).
The interaction of the organic compounds and Cu(II) complexes with BSA was monitored by studying the quenching of albumin’s fluorescence emission with increasing concentrations of the complexes (25). Overall, the intensity of the Trp emission decreases with the addition of the complexes, except for 8 (see Figs. S19). The Stern-Volmer relationship was used to analyse the fluorescence quenching process:
where I0 and I are the fluorescence intensities in the absence and in the presence of quencher, kq is the bimolecular quenching rate, τ0 is the fluorophore lifetime in the absence of the quencher (6.22 ns) (26) and [Q] is the quencher concentration. […] This linear relationship is obeyed for all complexes except 5, where a downward curvature is observed. This can be an indication of two distinct binding sites, corresponding to two populations of fluorophores, one being accessible and other inaccessible or buried inside the protein. In such cases, the Stern-Volmer relation can be modified to (27):
where ΔI = I0 – I, Ka is the Stern-Volmer constant for the accessible fraction and fa is the fraction of accessible fluorophore. […] As first approximation, the total concentration of quencher was used to check the quenching mechanism. […] As all systems presented high absorbance values in the measured range of wavelengths, no excess of quencher was used and, therefore, 1:1 species will be assumed for these interactions.

In another data set the test system is A-375 cells. The data set is described as follows: Sulforhodamine B (SRB) cell viability assay. Format: cell-based. Particulars: 72 h. The protocol:
(§1) Copper compounds were tested, along with the free ligands and cisplatin as the positive control, for their cytotoxicity on both melanoma (A-375) and lung adenocarcinoma (A-549) cell lines in the concentration range 0.78–50 μM. Following 72 h of incubation, cell viability was measured via sulforhodamine B (SRB) assay (Supplementary Figure S25).
(§2) A-375 cells (ATCC, CRL-3222) were grown in Dulbecco’s Modified Eagle Medium with high glucose (Gibco #11965118) and A-549 (ATCC, CCL-185) cells were grown in Dulbecco’s Modified Eagle Medium F-12 (Gibco #11320033), supplemented with 10% FBS (Gibco, #10500064) and Penicillin-Streptomycin (10,000 U/mL, Gibco, #15140122). Cells were incubated at 37 °C, 5% CO2 incubator and subcultured every 3 days.
(§3) All the tested complexes were dissolved in DMSO (10 mM stock solution), and aliquots were stored at -20 °C, thawed on the experiment day and used only once. For SRB cell viability assay, A-375 and A-549 cells were seeded on 96-well plates (4×10^3 cells/well) and treated with serial dilutions of indicated compounds (with a concentration range of 0-50 μM, 72 h). Trichloroacetic acid (TCA) was added to wells for fixation at a final concentration of 10%, for 1 h at 4 °C. Each well was washed five times with ddH2O, dried, and incubated with 0.4% (w/v) SRB dye (50 µL/well) for 30 min at room temperature. The wells were washed with 1% acetic acid (v/v) five times, and 150 µL of 10 mM Tris solution was added to dissolve the stain. Colorimetric measurements were taken at λ = 564 nm. Viability percentage was calculated as follows: % Cell Viability = [100 × (sample Abs.-blank) / (non-treated control Abs.-blank)].

A further data set concerns A-549 cells. The data set is described as follows: Sulforhodamine B (SRB) cell viability assay. Particulars: 72 h. It counts as cell-based. The protocol:
as §1, §2, §3

Data set [2] can be described thus: Thermodynamic solubility at pH 7.4. Format: physicochemical. Particulars: Cu(II) complexes; pH 7.40; 20 mM HEPES; 25.0°C. On the procedure:
Thermodynamic solubility (S) was measured for the new ligands, L^7 and L^8, since data for the rest of the series was previously reported (9), and for selected Cu(II) complexes: 1, 5 and 6. Solubility was measured for the saturated solutions in water at pH 7.40 in 20 mM HEPES at 25.0 ± 0.1 °C. The concentration was determined by UV-Vis spectrophotometry using the stock solutions of the compounds with known concentrations dissolved in 100% DMSO, 50% and 25% (v/v) DMSO/buffered aqueous solutions for the calibration.

The nature of data set [3]: Cu(II) complex formation and stability constants by UV-Vis spectrophotometric titrations. Particulars: physiological pH; 1 μM concentration. It counts as physicochemical. The protocol: The complex formation processes of L^1, L^5 and L^6 with Cu(II) ions were studied by UV-Vis spectrophotometry in 30% (v/v) DMSO/H2O using relatively low concentrations (c L = 50–60 μM), due to the limited water solubility of the ligand precursors as well as of the Cu(II) complexes (see thermodynamic solubility data in aqueous media in Table 2 and Table 3). L^1 was selected as the simplest compound of the studied ligand series, whereas L^5 and L^6 were selected to compare with the oxidovanadium(IV) system ([Ribeiro et al., 2022]). The solution stability and stoichiometry of the Cu(II) complexes were determined by the evaluation of the UV-Vis spectra recorded at various pH values (representative spectra are shown for the Cu(II) ‒ L^1 and Cu(II) ‒ L^6 systems in Figures 3A,B and for Cu(II) ‒ L^5 in Supplementary Figure S10A). The computed overall stability constants and pK a values of the complexes are collected in Table 3. The formation of only mono-ligand complexes was found with [Cu(LH)]^+, [Cu(L)], and [Cu(LH‒1)]^‒ (and [Cu(LH‒2)]^2‒ in the case of L^6) compositions, and their computed molar absorbance spectra are shown in Figures 3C, D, Supplementary Figure S10B.
An Agilent Cary 8454 diode array spectrophotometer was used to record the UV-Vis spectra in the range of 200–800 nm. Titrations were carried out with a Metrohm 665 Dosimat burette and an Orion 710A pH-meter equipped with a Metrohm combined electrode. A ionic strength of 0.10 M (KCl) was used to keep the activity coefficients constant. The titrations were performed with 0.10 M carbonate-free KOH solution in a 30% (v/v) DMSO/H2O solvent mixture. […] The average water ionization constant (pKw) is 14.53 ± 0.05 in the 30% (v/v) DMSO/H2O solvent mixture. The pKa values of the ligand precursors and the logβ values for the Cu(II) complexes were determined in 30% (v/v) DMSO/H2O in the same way as it was done in our previous publications (9, 11).
Spectrophotometric titrations were carried out on samples containing the ligands at 50 μM concentration, in the pH range from 2.0 to 11.5 in the absence or the presence of 1, 0.5 or 0.25 equiv. Cu(II) ions, using 10 cm^3 sample volumes. Proton dissociation constants (pKa) of the ligand precursors as well as stoichiometry and stability constants of the Cu(II) complexes (β) were calculated by the computer program PSEQUAD (12). The usual definition of overall (β) and stepwise (K) formation constants is used: […]

Data set [4] has as its system Klebsiella pneumoniae ATCC 49619. The data set can be described thus: MIC determination. It counts as cell-based. Particulars: K. pneumoniae; 18 h. The protocol: (§4) Wild-type Escherichia coli K-12 AG100 strain [argE3 thi-1 rpsL xyl mtl Δ(gal-uvrB) supE44] expressing the AcrAB TolC efflux pump at its basal level and Klebsiella pneumoniae ATCC 49619 Gram-negative strains were studied in the experiments. Sensitive (ATCC 25928) and the methicillin-resistant (MRSA 272123) subspecies of Staphylococcus aureus were used as Gram-positive strains in the assays.
(§5) Minimum inhibitory concentration (MIC) values of selected compounds were determined in 96-well plates based on the Clinical and Laboratory Standard Institute guidelines (CLSI guidelines). The stock solutions of the compounds were dissolved in DMSO using 1.3 μL of Mueller Hinton Broth, and then two-fold serial dilutions were performed. The starting concentration of the compounds was 100 μM. Then 10^‒4 dilution of an overnight bacterial culture in 100 μL of medium was added to each well, except for the medium control wells.

For data set [5], the system named is Escherichia coli K-12 AG100. The data set can be described thus: MIC determination. It counts as cell-based. Particulars: E. coli; 18 h. The protocol: as §4, §5
In the next data set the test system is S. aureus MRSA 272123. The data set can be described thus: MIC determination. Format: cell-based, Staphylococcus aureus. Particulars: 18 h. On the procedure: as §4, §5
In the next data set the test system is S. aureus ATCC 25928. The data set can be described thus: MIC determination. It counts as cell-based, Staphylococcus aureus. Particulars: S. aureus ATCC 25928 (sensitive); 18 h. The protocol:
as §4, §5

Sequence of bovine serum albumin (BSA) (P02769 25-607): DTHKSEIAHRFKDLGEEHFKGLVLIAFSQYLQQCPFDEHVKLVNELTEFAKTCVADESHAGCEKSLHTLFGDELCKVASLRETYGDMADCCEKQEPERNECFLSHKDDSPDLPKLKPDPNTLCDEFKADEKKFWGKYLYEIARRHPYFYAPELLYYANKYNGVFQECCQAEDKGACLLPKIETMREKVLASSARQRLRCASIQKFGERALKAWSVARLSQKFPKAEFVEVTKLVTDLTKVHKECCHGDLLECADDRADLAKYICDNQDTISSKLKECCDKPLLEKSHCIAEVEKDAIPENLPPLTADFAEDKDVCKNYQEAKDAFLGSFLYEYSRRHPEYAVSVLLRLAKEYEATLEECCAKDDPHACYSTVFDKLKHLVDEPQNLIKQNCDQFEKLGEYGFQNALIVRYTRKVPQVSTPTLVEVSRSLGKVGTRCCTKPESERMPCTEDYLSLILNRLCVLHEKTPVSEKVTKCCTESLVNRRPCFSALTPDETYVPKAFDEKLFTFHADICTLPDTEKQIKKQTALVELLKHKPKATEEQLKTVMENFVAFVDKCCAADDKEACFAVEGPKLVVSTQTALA

For `O=C([N-]N=Cc1ccc2cccc([O-])c2n1)c1ccc(Cl)cc1.O=C([N-]N=Cc1ccc2cccc([O-])c2n1)c1ccc(Cl)cc1.O=C([N-]N=Cc1ccc2cccc([O-])c2n1)c1ccc(Cl)cc1.[Cu+2].[Cu+2].[Cu+2]` [Complex 2, [Cu(L^2)]3], the “Affinity constant K ± SD” value in [1] is given as “(8.3 ± 0.1) × 10^4”. Further, the IC50 in the data set on A-375 cells turned out to be 6.5 ± 0.8 µM; with A-549 cells, 9.3 ± 0.4 µM. Also, in data set [2], the “thermodynamic solubility S 7.4” value was less than 1 µM.

For the compound `CC(=O)[O-].Cc1ccc(C(=O)NN=Cc2ccc3cccc([O-])c3n2)cc1.[Cu+2]` [Complex 4, [Cu(HL^4)(AcO)]], in [1], the “Affinity constant K ± SD” value is reported as “(3.2 ± 1.0) × 10^6”. The values for the half-maximal inhibitory concentration (IC50) with A-375 cells and in the data set with A-549 cells were 2 ± 1.3 µM and 3.9 ± 0.6 µM, respectively. Also, the “thermodynamic solubility S 7.4” value in [2] was found to be 4.0 ± 0.2 µM.

Consider `O=C([N-]N=Cc1ccc2cccc([O-])c2n1)c1ccc(O)cc1.O=C([N-]N=Cc1ccc2cccc([O-])c2n1)c1ccc(O)cc1.O=C([N-]N=Cc1ccc2cccc([O-])c2n1)c1ccc(O)cc1.[Cu+2].[Cu+2].[Cu+2]` [Complex 6, [Cu(L^6)]3], for which the “level of dissociation of the complex” value in data set [3] was “ca. 5%”. Also, the MIC (in data set [4]; in data set [5]; in the data set with S. aureus MRSA 272123; in the data set on S. aureus ATCC 25928) was greater than 100 µM throughout. Also, the “Affinity constant K ± SD” value in data set [1] is given as “(2.7 ± 0.8) × 10^5”. For the same compound, the values for the IC50 in the data set with A-375 cells and with A-549 cells were 13.6 ± 0.9 µM and 16 ± 0.3 µM, respectively.

Take `[Cl][Cu][Cl]` [CuCl2, reference compound]: the minimal inhibitory concentration (MIC) (in data set [4]; in data set [5]; in the data set with S. aureus MRSA 272123; in the data set on S. aureus ATCC 25928) was greater than 100 µM in each case.

Take `N.N.[Cl][Pt][Cl]` [cisplatin, reference compound]: the values for the half-inhibitory concentration (IC50) with A-375 cells and with A-549 cells were 11.2 ± 0.3 µM and 16.5 ± 3.4 µM, respectively.
